From patent US4542137A, “Alkylaminodesoxy-1.4;3.6-dianhydrohexitol nitrates substituted by purine bases and pharmaceutical compositions” (priority 1980, dated 1985)
Read-outs that look alike come from different tables or passages of the source.

Columns and labels:
mongrel cats [1] = experiment: inotropic and frequency-lowering heart circulation effectiveness on mongrel cats, intravenous; assay type: in vivo; design: heart frequency previously / dp/dt previously / dp/dt afterwards: unit not given beside the values; settings: cat; for blood pressure afterwards / dp/dt afterwards / heart frequency afterwards: after; for blood pressure previously / dp/dt previously / heart frequency previously: before; for blood pressure Δ / dp/dt Δ / heart frequency Δ: change
Description: (§1) The animals were narcotised with a mixture of chloralose-urethane (1.2 g./kg. urethane+40 mg./kg. chloralose administered i.p.). They breathed spontaneously through a tracheal canula. The A. carotis sinistra was used in order to place a catheter tip manometer into the left heart chamber. The V. jugularis served for injection purposes. Via the A. femoralis dextra, a catheter was pushed in up to the Aorta descendans and attached to a pressure recorder (Statham P 23 Db). The heart frequency was recorded with a pulse frequency measurer (Firm Hugo Sachs Elektronik) from the left ventricular pressure signal.

mongrel cats [2] = experiment: inotropic and frequency-lowering heart circulation effectiveness on mongrel cats, intraduodenal; assay type: in vivo; settings: cat, 5 mg/kg intraduodenal
Description: as §1, with “A. femoralis,” for “A. femoralis dextra,”, “pushed” for “pushed in”, “up into” for “up to”, “measurer (firm” for “measurer (Firm”, “signal. A duodenal loop was exposed by a laparotomy. The substances to be tested were injected directly into the lumen.” for “signal.”

[3] = acute toxicity in mice according to the method of Lichtfield and Wilcoxon; settings: mouse, in vivo
Description: As to example 1d, the following values for acute toxicity were determined with a greater number of mice, according to the method of Lichtfield and Wilcoxon: […]

guinea pigs = experiment: blood pressure-lowering effectiveness on narcotised guinea pigs, i.v.; settings: for blood pressure afterwards: after; for blood pressure previously: before; for blood pressure Δ: change
[4] = tested on: isolated rat aorta preparations; experiment: spasmolytic effectiveness on isolated rat aorta preparations (noradrenaline- and potassium chloride-induced contractions)
[5] = read-out: ED50 for spasmolytic action, Noradrenaline spasm (50% inhibition)
[6] = read-out: ED50 for spasmolytic action, potassium chloride spasm (50% inhibition)

SMILES: Cn1c(=O)c2c(ncn2CCCN[C@H]2CO[C@H]3[C@@H]2OC[C@@H]3O[N+](=O)[O-])n(C)c1=O [Example 1d, 5-(3-Theophyllin-7-ylpropyl)-amino-5-desoxy-1.4;3.6-dianhydro-L-iditol 2-nitrate]
- blood pressure WD (mongrel cats [1]; 0.25 mg/kg i.v.): 27.71 min
- dp/dt WD (mongrel cats [1]; 0.25 mg/kg i.v.): 15.57 min
- blood pressure afterwards (mongrel cats [1]; 0.25 mg/kg i.v.): 64.86
- dp/dt afterwards (mongrel cats [1]; 0.25 mg/kg i.v.): 6086
- heart frequency afterwards (mongrel cats [1]; 0.25 mg/kg i.v.): 184.57
- blood pressure previously (mongrel cats [1]; 0.25 mg/kg i.v.): 103.00
- dp/dt previously (mongrel cats [1]; 0.25 mg/kg i.v.): 7371
- heart frequency previously (mongrel cats [1]; 0.25 mg/kg i.v.): 180.86
- blood pressure Δ (mongrel cats [1]; 0.25 mg/kg i.v.): -38.14
- dp/dt Δ (mongrel cats [1]; 0.25 mg/kg i.v.): -1285
- heart frequency Δ (mongrel cats [1]; 0.25 mg/kg i.v.): +3.71
- blood pressure WD (mongrel cats [1]; 0.50 mg/kg i.v.): 20.21 min
- dp/dt WD (mongrel cats [1]; 0.50 mg/kg i.v.): 24.57 min
- blood pressure afterwards (mongrel cats [1]; 0.50 mg/kg i.v.): 61.57
- dp/dt afterwards (mongrel cats [1]; 0.50 mg/kg i.v.): 5300
- heart frequency afterwards (mongrel cats [1]; 0.50 mg/kg i.v.): 182.29
- blood pressure previously (mongrel cats [1]; 0.50 mg/kg i.v.): 101.86
- dp/dt previously (mongrel cats [1]; 0.50 mg/kg i.v.): 6614
- heart frequency previously (mongrel cats [1]; 0.50 mg/kg i.v.): 178.29
- blood pressure Δ (mongrel cats [1]; 0.50 mg/kg i.v.): -40.29
- dp/dt Δ (mongrel cats [1]; 0.50 mg/kg i.v.): -1314
- heart frequency Δ (mongrel cats [1]; 0.50 mg/kg i.v.): +4.00
- blood pressure WD (mongrel cats [1]; 1.00 mg/kg i.v.): 24.29 min
- dp/dt WD (mongrel cats [1]; 1.00 mg/kg i.v.): 19.58 min
- blood pressure afterwards (mongrel cats [1]; 1.00 mg/kg i.v.): 59.86
- dp/dt afterwards (mongrel cats [1]; 1.00 mg/kg i.v.): 5186
- heart frequency afterwards (mongrel cats [1]; 1.00 mg/kg i.v.): 182.00
- blood pressure previously (mongrel cats [1]; 1.00 mg/kg i.v.): 103.43
- dp/dt previously (mongrel cats [1]; 1.00 mg/kg i.v.): 5957
- heart frequency previously (mongrel cats [1]; 1.00 mg/kg i.v.): 174.00
- blood pressure Δ (mongrel cats [1]; 1.00 mg/kg i.v.): -43.57
- dp/dt Δ (mongrel cats [1]; 1.00 mg/kg i.v.): -771
- heart frequency Δ (mongrel cats [1]; 1.00 mg/kg i.v.): +8.00
- blood pressure WD (mongrel cats [1]; 2.50 mg/kg i.v.): > 10 min
- dp/dt WD (mongrel cats [1]; 2.50 mg/kg i.v.): 6.42 min
- blood pressure afterwards (mongrel cats [1]; 2.50 mg/kg i.v.): 63.88
- dp/dt afterwards (mongrel cats [1]; 2.50 mg/kg i.v.): 6550
- heart frequency afterwards (mongrel cats [1]; 2.50 mg/kg i.v.): 180.33
- blood pressure previously (mongrel cats [1]; 2.50 mg/kg i.v.): 107.50
- dp/dt previously (mongrel cats [1]; 2.50 mg/kg i.v.): 6383
- heart frequency previously (mongrel cats [1]; 2.50 mg/kg i.v.): 169.67
- blood pressure Δ (mongrel cats [1]; 2.50 mg/kg i.v.): -43.62
- dp/dt Δ (mongrel cats [1]; 2.50 mg/kg i.v.): +167
- heart frequency Δ (mongrel cats [1]; 2.50 mg/kg i.v.): +10.66
- blood pressure (mongrel cats [2]; 0 min): 115.4 ± 14.4 mm. Hg
- dp/dt (mongrel cats [2]; 0 min): 6000 ± 1367 mm sec.
- frequency (mongrel cats [2]; 0 min): 173.2 ± 14.5 min⁻¹
- blood pressure (mongrel cats [2]; 10 min): 86.0 ± 13.8 mm. Hg
- dp/dt (mongrel cats [2]; 10 min): 4880 ± 1371 mm sec.
- frequency (mongrel cats [2]; 10 min): 173.6 ± 14.8 min⁻¹
- blood pressure Δ (mongrel cats [2]; 10 min vs 0): -29.4 mm. Hg
- dp/dt Δ (mongrel cats [2]; 10 min vs 0): -1120 mm sec.
- blood pressure (mongrel cats [2]; 30 min): 88.6 ± 14.8 mm. Hg
- dp/dt (mongrel cats [2]; 30 min): 4500 ± 1312 mm sec.
- frequency (mongrel cats [2]; 30 min): 166.0 ± 15.6 min⁻¹
- blood pressure Δ (mongrel cats [2]; 30 min vs 0): -26.8 mm. Hg
- dp/dt Δ (mongrel cats [2]; 30 min vs 0): -1440 mm sec.
- blood pressure (mongrel cats [2]; 60 min): 95.0 ± 14.4 mm. Hg
- dp/dt (mongrel cats [2]; 60 min): 5020 ± 1330 mm sec.
- frequency (mongrel cats [2]; 60 min): 168.4 ± 14.0 min⁻¹
- blood pressure Δ (mongrel cats [2]; 60 min vs 0): -20.4 mm. Hg
- dp/dt Δ (mongrel cats [2]; 60 min vs 0): -980 mm sec.
- blood pressure (mongrel cats [2]; 120 min): 99.4 ± 13.2 mm. Hg
- dp/dt (mongrel cats [2]; 120 min): 5100 ± 1341 mm sec.
- frequency (mongrel cats [2]; 120 min): 164.8 ± 13.2 min⁻¹
- blood pressure Δ (mongrel cats [2]; 120 min vs 0): -16.0 mm. Hg
- dp/dt Δ (mongrel cats [2]; 120 min vs 0): -900 mm sec.
- LD50 ([3]; ip, printed range (678.6-851.2), read-out: LD50 i.p.): 760 mg/kg
- LD50 ([3]; iv, printed range (190.4-251.9), read-out: LD50 i.v.): 219 mg/kg
- LD50 ([3]; po, read-out: LD50 p.o.): 1600 mg/kg
- blood pressure afterwards (guinea pigs; 0.25 mg/kg i.v.): 49.75 ± 2.78 mm. Hg
- blood pressure previously (guinea pigs; 0.25 mg/kg i.v.): 67.75 ± 3.27 mm. Hg
- blood pressure Δ (guinea pigs; 0.25 mg/kg i.v.): -18.00 mm. Hg
- blood pressure afterwards (guinea pigs; 1.00 mg/kg i.v.): 40.00 ± 2.12 mm. Hg
- blood pressure previously (guinea pigs; 1.00 mg/kg i.v.): 68.00 ± 3.85 mm. Hg
- blood pressure Δ (guinea pigs; 1.00 mg/kg i.v.): -28.00 mm. Hg
- blood pressure afterwards (guinea pigs; 2.50 mg/kg i.v.): 37.50 ± 1.76 mm. Hg
- blood pressure previously (guinea pigs; 2.50 mg/kg i.v.): 66.25 ± 2.66 mm. Hg
- blood pressure Δ (guinea pigs; 2.50 mg/kg i.v.): -28.75 mm. Hg
- blood pressure-lowering effectiveness compared with ISMN or ISDN (guinea pigs; i.v., narcotised guinea pigs): more effective than ISMN or ISDN
- IC50 [4, 5]: 560 nM
- IC50 [4, 6]: 2900 nM

SMILES: CN(CCCn1cnc2c1c(=O)n(C)c(=O)n2C)[C@H]1CO[C@H]2[C@@H]1OC[C@@H]2O[N+](=O)[O-] [Example 9c, 5-[N-Methyl-N-(3-theophyllin-7-ylpropyl)-amino]-5-desoxy-1.4;3.6-dianhydro-L-iditol 2-nitrate]
- IC50 [4, 5]: 2950 nM
- IC50 [4, 6]: 45900 nM
